Reference: patent publication US12070458B2, “Therapeutic agent composition and method of use, for treatment of mild congnitive impairment, depression, and psychological disorders” (priority 2018, dated 2024)
Entries after “also recorded” stand apart in the source; their conditions may differ.

System: Alzheimer patients with mild cognitive impairment
Test: Clinical trial on Alzheimer's patients with mild cognitive impairment
Type: in vivo, human
Conditions: 10 mg orally once a day
Method: A randomized clinical trial of NA-831 (also known as cyclic Prolyl Glycine) was performed on Alzheimer patients with mild cognitive impairment of vascular origin. The drug NA-831 was administered orally with a one capsule of 10 mg once a day over a period of 12 weeks. There were 32 Alzheimer patients participated in the study.
• Is male or female, at 55-85 years of age (inclusive) at screening. • Self-reported memory complaint, corroborated by spouse or companion as appropriate. • Wechsler Memory Scale III (WMS-III) age-adjusted Logical Memory II score ≤5. • Mini-Mental State Exam (MMSE)≥24. • Center for Epidemiologic Studies-Depression (CES-D) score <27. • Normal thyroid function, defined as TSH, T3 and T4 within normal limits. • Agree not to consume alcoholic beverages within 8 hours of each study visit. • Willing and able to sign informed consent and complete the CTB and all other tests and procedures as listed in the protocol. • Female subjects must be surgically sterile or post-menopausal for at least 2 years. If <2 years post-menopausal, then a follicle stimulating hormone (FSH) ≥40 mIU/mL must be obtained. […] Assessment • 1) A scale assessing the severity of symptoms based on the Unified Assessment of Clinical-Pharmacological Actions of Psychotropic Agents in Patients with Organic Disorders, which provides objective quantitative data on the therapeutic dynamics of psychopathological symptomatology and the characteristics of the psychotropic actions of agents. • 2) The Mini Mental State Examination (MMSE), which consists of a battery of neuropsychological tests evaluating cognitive functions in points: attention, memory, gnosis, speech, praxis, and counting. • 3) The Brief Cognitive Rating Scale (BCRS), which provides assessment of the severities of the individual components of cognitive impairments. • 4) The Cognitive Capacity Screening Examination (CCSE), which consists of a battery of tests assessing cognitive functions: orientation, memory, counting, and the abilities to infer and to group objects. • 5) The Clinical Global Impression scale, which provides quantitative assessments of the therapeutic efficacies of agents, along with tolerance and safety, using investigations of measures of disease severity, the level of “overall improvement,” the therapeutic effect, and the presence and severity of side effects during treatment. • 6) Laboratory analyses consisting of general blood and urine tests, including biochemical investigations (AST, ALT). • 7) ECG traces. Results
The mental state of patients with mild cognitive impairment, such as but not limited to through vascular origin was defined by the assessment including the Mini Mental State Examination (MMSE), the Brief Cognitive Rating Scale (BCRS), the Cognitive Capacity Screening Examination (CCSE).
W is Wilcoxon signed-rank test, which is the nonparametric test equivalent to the dependent t-test. It is used to compare two sets of scores that come from the same participants. This can occur when we wish to investigate any change in scores from one time point to another, or when individuals are subjected to more than one condition.
Clinicians use used a Wilcoxon signed-rank test to understand whether there was a difference in the patient conditions in term of fatigue before and after a period the time with the drug treatment.
Analysis of the therapeutic efficacies of NA-831 were performed in all patients in the trial using the assessment methods including: the Mini Mental State Examination (MMSE), the Brief Cognitive Rating Scale (BCRS), and the Cognitive Capacity Screening Examination (CCSE).

O=C1NCC(=O)N2CCC[C@@H]12 [cPG, cyclic Prolyl Glycine]
long-term memory (12 weeks): improves
orientation (12 weeks): improves
patients with little improvement (12 weeks): 7.5%
patients with marked improvement (12 weeks): 92.5%
short-term memory (12 weeks): improves
ability to concentrate and count (Brief Cognitive Rating Scale) (day 42 to day 84, p value of less than 0.01): improve
functions significantly improved with p<0.01 (listed as NA-831): Reduce fatigue; also recorded: Reduce anxiety; also recorded: Reduce irritability; also recorded: Improve lability; also recorded: Reduce disturbance from waking up at night; also recorded: Reduce daytime drowsiness; also recorded: Improve duration of nocturnal sleep
Affective Lability, W (Wilcoxon signed-rank test) (Baseline vs day 7): 23
Anxiety, W (Wilcoxon signed-rank test) (Baseline vs day 7): 22
Apathy indifference, W (Wilcoxon signed-rank test) (Baseline vs day 7): 19
Daytime drowsiness, W (Wilcoxon signed-rank test) (Baseline vs day 7): 19
Decreased mood, W (Wilcoxon signed-rank test) (Baseline vs day 7): 3
Disturbance to waking, W (Wilcoxon signed-rank test) (Baseline vs day 7): 21
Headache, W (Wilcoxon signed-rank test) (Baseline vs day 7): 28
Hyperesthesia, W (Wilcoxon signed-rank test) (Baseline vs day 7): 11
Impairments to the depth and duration of nocturnal sleep, W (Wilcoxon signed-rank test) (Baseline vs day 7): 37
Increased fatigue, W (Wilcoxon signed-rank test) (Baseline vs day 7): 17
Increased irritability, W (Wilcoxon signed-rank test) (Baseline vs day 7): 38
Orthostatic Impairment, W (Wilcoxon signed-rank test) (Baseline vs day 7): 18
Sleeping Disturbance, W (Wilcoxon signed-rank test) (Baseline vs day 7): 37
Sweating, W (Wilcoxon signed-rank test) (Baseline vs day 7): 12
Tachycardia, W (Wilcoxon signed-rank test) (Baseline vs day 7): 29
Affective Lability, W (Wilcoxon signed-rank test) (Baseline vs day 14): 58
Anxiety, W (Wilcoxon signed-rank test) (Baseline vs day 14): 22
Apathy indifference, W (Wilcoxon signed-rank test) (Baseline vs day 14): 41
Daytime drowsiness, W (Wilcoxon signed-rank test) (Baseline vs day 14): 45
Decreased mood, W (Wilcoxon signed-rank test) (Baseline vs day 14): 12
Disturbance to waking, W (Wilcoxon signed-rank test) (Baseline vs day 14): 29
Headache, W (Wilcoxon signed-rank test) (Baseline vs day 14): 49
Hyperesthesia, W (Wilcoxon signed-rank test) (Baseline vs day 14): 21
Impairments to the depth and duration of nocturnal sleep, W (Wilcoxon signed-rank test) (Baseline vs day 14): 57
Increased fatigue, W (Wilcoxon signed-rank test) (Baseline vs day 14): 95
Increased irritability, W (Wilcoxon signed-rank test) (Baseline vs day 14): 47
Orthostatic Impairment, W (Wilcoxon signed-rank test) (Baseline vs day 14): 37
Sleeping Disturbance, W (Wilcoxon signed-rank test) (Baseline vs day 14): 47
Sweating, W (Wilcoxon signed-rank test) (Baseline vs day 14): 23
Tachycardia, W (Wilcoxon signed-rank test) (Baseline vs day 14): 28
Affective Lability, W (Wilcoxon signed-rank test) (Baseline vs day 21): 69
Anxiety, W (Wilcoxon signed-rank test) (Baseline vs day 21): 46
Apathy indifference, W (Wilcoxon signed-rank test) (Baseline vs day 21): 57
Daytime drowsiness, W (Wilcoxon signed-rank test) (Baseline vs day 21): 52
Decreased mood, W (Wilcoxon signed-rank test) (Baseline vs day 21): 22
Disturbance to waking, W (Wilcoxon signed-rank test) (Baseline vs day 21): 41
Headache, W (Wilcoxon signed-rank test) (Baseline vs day 21): 98
Hyperesthesia, W (Wilcoxon signed-rank test) (Baseline vs day 21): 33
Impairments to the depth and duration of nocturnal sleep, W (Wilcoxon signed-rank test) (Baseline vs day 21): 91
Increased fatigue, W (Wilcoxon signed-rank test) (Baseline vs day 21): 97
Increased irritability, W (Wilcoxon signed-rank test) (Baseline vs day 21): 68
Orthostatic Impairment, W (Wilcoxon signed-rank test) (Baseline vs day 21): 58
Sleeping Disturbance, W (Wilcoxon signed-rank test) (Baseline vs day 21): 70
Sweating, W (Wilcoxon signed-rank test) (Baseline vs day 21): 37
Tachycardia, W (Wilcoxon signed-rank test) (Baseline vs day 21): 35
Affective Lability, W (Wilcoxon signed-rank test) (Baseline vs day 28): 118
Anxiety, W (Wilcoxon signed-rank test) (Baseline vs day 28): 70
Apathy indifference, W (Wilcoxon signed-rank test) (Baseline vs day 28): 59
Daytime drowsiness, W (Wilcoxon signed-rank test) (Baseline vs day 28): 67
Decreased mood, W (Wilcoxon signed-rank test) (Baseline vs day 28): 23
Disturbance to waking, W (Wilcoxon signed-rank test) (Baseline vs day 28): 47
Headache, W (Wilcoxon signed-rank test) (Baseline vs day 28): 101
Hyperesthesia, W (Wilcoxon signed-rank test) (Baseline vs day 28): 67
Impairments to the depth and duration of nocturnal sleep, W (Wilcoxon signed-rank test) (Baseline vs day 28): 93
Increased fatigue, W (Wilcoxon signed-rank test) (Baseline vs day 28): 137
Increased irritability, W (Wilcoxon signed-rank test) (Baseline vs day 28): 93
Orthostatic Impairment, W (Wilcoxon signed-rank test) (Baseline vs day 28): 78
Sleeping Disturbance, W (Wilcoxon signed-rank test) (Baseline vs day 28): 70
Sweating, W (Wilcoxon signed-rank test) (Baseline vs day 28): 66
Tachycardia, W (Wilcoxon signed-rank test) (Baseline vs day 28): 45
Affective Lability, W (Wilcoxon signed-rank test) (Baseline vs day 42): 139
Anxiety, W (Wilcoxon signed-rank test) (Baseline vs day 42): 107
Apathy indifference, W (Wilcoxon signed-rank test) (Baseline vs day 42): 61
Daytime drowsiness, W (Wilcoxon signed-rank test) (Baseline vs day 42): 76
Decreased mood, W (Wilcoxon signed-rank test) (Baseline vs day 42): 23
Disturbance to waking, W (Wilcoxon signed-rank test) (Baseline vs day 42): 69
Headache, W (Wilcoxon signed-rank test) (Baseline vs day 42): 120
Hyperesthesia, W (Wilcoxon signed-rank test) (Baseline vs day 42): 69
Impairments to the depth and duration of nocturnal sleep, W (Wilcoxon signed-rank test) (Baseline vs day 42): 104
Increased fatigue, W (Wilcoxon signed-rank test) (Baseline vs day 42): 155
Increased irritability, W (Wilcoxon signed-rank test) (Baseline vs day 42): 109
Orthostatic Impairment, W (Wilcoxon signed-rank test) (Baseline vs day 42): 67
Sleeping Disturbance, W (Wilcoxon signed-rank test) (Baseline vs day 42): 82
Sweating, W (Wilcoxon signed-rank test) (Baseline vs day 42): 67
Tachycardia, W (Wilcoxon signed-rank test) (Baseline vs day 42): 53
Affective Lability, W (Wilcoxon signed-rank test) (Baseline vs day 56): 140
Anxiety, W (Wilcoxon signed-rank test) (Baseline vs day 56): 110
Apathy indifference, W (Wilcoxon signed-rank test) (Baseline vs day 56): 65
Daytime drowsiness, W (Wilcoxon signed-rank test) (Baseline vs day 56): 109
Decreased mood, W (Wilcoxon signed-rank test) (Baseline vs day 56): 23
Disturbance to waking, W (Wilcoxon signed-rank test) (Baseline vs day 56): 92
Headache, W (Wilcoxon signed-rank test) (Baseline vs day 56): 121
Hyperesthesia, W (Wilcoxon signed-rank test) (Baseline vs day 56): 78
Impairments to the depth and duration of nocturnal sleep, W (Wilcoxon signed-rank test) (Baseline vs day 56): 113
Increased fatigue, W (Wilcoxon signed-rank test) (Baseline vs day 56): 159
Increased irritability, W (Wilcoxon signed-rank test) (Baseline vs day 56): 110
Orthostatic Impairment, W (Wilcoxon signed-rank test) (Baseline vs day 56): 78
Sleeping Disturbance, W (Wilcoxon signed-rank test) (Baseline vs day 56): 82
Sweating, W (Wilcoxon signed-rank test) (Baseline vs day 56): 67
Tachycardia, W (Wilcoxon signed-rank test) (Baseline vs day 56): 67
Affective Lability, W (Wilcoxon signed-rank test) (Baseline vs day 70): 142
Anxiety, W (Wilcoxon signed-rank test) (Baseline vs day 70): 115
Apathy indifference, W (Wilcoxon signed-rank test) (Baseline vs day 70): 67
Daytime drowsiness, W (Wilcoxon signed-rank test) (Baseline vs day 70): 117
Decreased mood, W (Wilcoxon signed-rank test) (Baseline vs day 70): 24
Disturbance to waking, W (Wilcoxon signed-rank test) (Baseline vs day 70): 95
Headache, W (Wilcoxon signed-rank test) (Baseline vs day 70): 129
Hyperesthesia, W (Wilcoxon signed-rank test) (Baseline vs day 70): 83
Impairments to the depth and duration of nocturnal sleep, W (Wilcoxon signed-rank test) (Baseline vs day 70): 118
Increased fatigue, W (Wilcoxon signed-rank test) (Baseline vs day 70): 162
Increased irritability, W (Wilcoxon signed-rank test) (Baseline vs day 70): 117
Orthostatic Impairment, W (Wilcoxon signed-rank test) (Baseline vs day 70): 81
Sleeping Disturbance, W (Wilcoxon signed-rank test) (Baseline vs day 70): 82
Sweating, W (Wilcoxon signed-rank test) (Baseline vs day 70): 69
Tachycardia, W (Wilcoxon signed-rank test) (Baseline vs day 70): 69
MMSE, average (day 84, average 23.5 on day 1): 29.75
